Read-outs that look alike come from different tables or passages of the source.
Experiments:
[1] = biological target: T1, Kv1.3 channel (Homo sapiens, UniProt P22001); details: read-out: Affinity (Kd), cited from earlier work
[2] = biological target: T1, Kv1.3 channel; assay: Whole-cell patch-clamp in HEK cell transfected with the Kv1.3 channel; assay type: cell-based; details: 10 nM; potentials from +10 up to +80 mV; HEK cell transfected with Kv1.3
Description: FIG. 3. Example of the assay for determining if a substance is a Kv1.3 channel blocker. […] The amplitude of the maximum current evoked by each voltage pulse is depicted in panel B depending on the value of the membrane potential, with which the current (I) voltage (V) curve is constructed for the three situations.
To evaluate if a substance is capable of dose-dependently reducing the flow of current through Kv1.3 (i.e., if it is a Kv1.3 blocker). The currents through the Kv1.3 channels expressed in the heterologous system were studied by means of the patch-clamp technique in the whole-cell configuration. The currents were recorded at room temperature (21-25° C.). The cells, placed in a recording chamber located in an inverted microscope, were perfused with a physiological saline solution (in mM: 141 NaCl, 4.7 KCl, 1.2 MgCl2, 1.8 CaCl2, 10 glucose and 10 HEPES (pH 7.4 with NaOH). The recording pipettes were made from borosilicate glass (2.0 mm OD, WPI) with a pipette puller (Narishige PP-83) so that they have resistances between 2 and 5 MΩ upon filling them with an internal solution containing (in mM) 125 KCl, 4 MgCl2, 10 HEPES, 10 EGTA, 5 MgATP; (pH 7.2 with KOH). The whole-cell currents were recorded with an Axopatch 200 amplifier or the like, filtering at 2 kHz and sampling at 10 kHz. […]

[3] = system: Swine animal model of restenosis (coronary artery intima); assay: Swine animal model for the treatment of restenosis: morphometric analysis of stented coronary arteries; assay type: in vivo, pigs
Method: (§1) The total weight of the polymer with the drug is about 500 μg and the drug:polymer ratio is 30%. The stents are packed individually, coded with a bar code (to do a double blind experiment) and sterilized with ethylene oxide.
(§2) 36 stents (12 with the polymer alone, 12 with PAP and 12 with ShK) are implanted in 12 young pigs (25-35 kg) in the anterior descending or circumflex branches of the left coronary artery or in the right coronary artery (at a proportion of 3 stents per animal). The animals recover from the operation and are sent back to the animal house where they receive a normal diet supplemented with aspirin (325 mg/d). Blood samples of the animals are obtained at 6, 12, 24, 48 and 96 hours to determine the plasma levels of PAP and ShK. At 7 (n=4) or 28 days (n=8) the animals are euthanized after performing a coronary arteriography for the quantitative analysis. In one animal of each group (7 and 28 days), after euthanasia the coronary arteries are dissected, the stent is removed and the samples are frozen in liquid nitrogen in order to determine different markers by means of Western blot of the tissues and to determine the levels of PAP and ShK in the arterial wall. In the rest of the animals, immediately after euthanasia the hearts are collected and the coronary arteries are fixed by perfusion of formalin at 10% for 30 minutes.
A morphometric analysis is performed measuring the degree of endothelialization of the stent area, the content of VSMCs in the intima and its thickness in relation to the thickness of the vessel and the lumen area (see FIG. 9).

[4] = Swine stent model: pharmacokinetics (blood and arterial tissue levels); assay type: in vivo, pigs
Method: as §1, §2

[5] = system: VSMCs of the human uterine artery; assay: Proliferation of VSMCs in culture (BrdU incorporation); assay type: cell-based; details: 10 nM; 24 hours; medium with 5% serum
Method: FIG. 8. Effect of the Kv1.3 channel blockers on the proliferation of the VSMCs of the human uterine artery. […] Again, these experiments were conducted in cells in control medium and cells in which the margatoxin or PAP was added to the medium.
For the proliferation studies, the fraction of cells incorporating 5-bromo-2′-deoxyuridine (BrdU) was determined. BrdU is a thymidine analog which can be incorporated in its place for the synthesis phase of the cell cycle. The cells incorporating BrdU can be detected by means of observation under a fluorescence microscope upon using a monoclonal antibody against this molecule and a secondary antibody conjugated with a fluorochrome. The assay was performed with a commercial kit (5-Bromo-2′-deoxy-uridine labeling and Detection Kit I; Roche Applied Science, Germany). The human uterine artery smooth muscle cells were grown for 48 hours in glass coverslips 12 mm in diameter in DMEM medium supplemented with serum and antibiotics as has been previously described, until reaching a confluence close to 50%. […] To quantify the results, the number of cells positive for BrdU with respect to the total number of cells in the field (which is determined by labeling the nuclei with the DAPI fluorescent dye) is counted in 10-20 fields in each experiment.

[6] = biological target: T2, Kv1.3 channels (Mus musculus, UniProt P16390); assay: Whole-cell patch-clamp of Kv currents in contractile and cultured VSMCs of mouse femoral arteries; assay type: cell-based; details: 10 nM, pulse to +40 mV
T2 construct: endogenous in cells; host or cells: freshly dissociated and cultured VSMCs from femoral arteries of BPN mice
T2 sequence (P16390 whole entry): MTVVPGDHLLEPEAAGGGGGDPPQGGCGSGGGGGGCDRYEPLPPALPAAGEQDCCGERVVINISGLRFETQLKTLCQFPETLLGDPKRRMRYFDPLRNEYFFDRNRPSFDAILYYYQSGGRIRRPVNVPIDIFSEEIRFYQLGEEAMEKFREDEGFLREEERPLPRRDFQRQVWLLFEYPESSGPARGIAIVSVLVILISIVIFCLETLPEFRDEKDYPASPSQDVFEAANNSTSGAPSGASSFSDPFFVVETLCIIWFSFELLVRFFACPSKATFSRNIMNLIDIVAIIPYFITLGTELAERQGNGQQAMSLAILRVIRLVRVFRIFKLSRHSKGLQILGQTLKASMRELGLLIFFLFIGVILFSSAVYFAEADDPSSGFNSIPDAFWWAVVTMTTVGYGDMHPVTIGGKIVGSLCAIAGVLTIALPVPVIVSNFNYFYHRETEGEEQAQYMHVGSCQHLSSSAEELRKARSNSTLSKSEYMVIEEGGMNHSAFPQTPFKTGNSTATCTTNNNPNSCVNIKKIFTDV
Method: To isolate the VSMCs (model of cells in contractile phenotype), the animals were sacrificed by decapitation after anesthesia with isoflurane (5% at 2.5 I O2 min^−1).
To obtain the VSMCs in culture (in vitro model of proliferative phenotype), small fragments (0.5 mm) of femoral arteries free of endothelium and connective tissue were placed in 35 mm Petri culture dishes covered with 2% gelatin (Type B, Sigma) in a DMEM culture medium with 20% of fetal bovine serum, 100 U/ml penicillin, 100 U/ml streptomycin and 2 mM L-glutamine at 37° C. in a 5% CO2 atmosphere. The migration and proliferation of the VSMCs of these explants was clear at 6-10 days, but the explants were maintained until the single layer of VSMC was confluent. At this time, by means of mechanical scraping with a rubber spatula the cells were shed and seeded in a new culture dish at ⅓ of their original density. The VSMCs were thus subjected to several passes (3-4) without showing apparent morphological changes.
The drugs were prepared at the final concentrations indicated in the saline solution of the bath following the supplier's instructions and were applied to the cells for a period of 1-2 minutes. The currents were recorded before applying the drug (control) and in the presence of the drug, and the percentage of reduction in the amplitude of the currents induced by different blockers was calculated.

T1 sequence (P22001 whole entry): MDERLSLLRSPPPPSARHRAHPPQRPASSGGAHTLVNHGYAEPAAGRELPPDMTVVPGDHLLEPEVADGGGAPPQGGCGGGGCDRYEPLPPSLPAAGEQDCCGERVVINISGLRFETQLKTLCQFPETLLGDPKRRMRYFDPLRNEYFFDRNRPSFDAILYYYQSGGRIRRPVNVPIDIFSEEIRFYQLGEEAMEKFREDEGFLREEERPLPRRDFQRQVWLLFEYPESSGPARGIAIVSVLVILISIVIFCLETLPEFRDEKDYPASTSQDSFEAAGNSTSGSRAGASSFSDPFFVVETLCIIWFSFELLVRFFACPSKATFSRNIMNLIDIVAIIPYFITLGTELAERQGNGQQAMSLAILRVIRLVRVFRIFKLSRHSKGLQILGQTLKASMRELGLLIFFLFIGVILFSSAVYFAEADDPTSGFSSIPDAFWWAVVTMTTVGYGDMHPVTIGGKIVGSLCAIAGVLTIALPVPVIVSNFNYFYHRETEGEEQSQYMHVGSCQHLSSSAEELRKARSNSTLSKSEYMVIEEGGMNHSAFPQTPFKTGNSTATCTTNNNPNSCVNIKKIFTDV

Compound	Kd ([1]; Kv1.3 channel)	further results
Bunodosoma granulifera toxin	0.039 µM	–
Pandinus imperator toxin 2	5e-05 µM	–
O=c1ccc2c(OCCCCOc3ccccc3)c3ccoc3cc2o1 [PAP-1]	–	reduction of the current [2]: 80-85%; number of VSMCs in the intima ([3]; drug-coated stent versus control stent): significantly decreased; intimal area ([3]; drug-coated stent, 5.07 mm^2 in control): 2.23 mm^2; degree of stenosis ([3]; drug-coated stent, 45% in control): 27%; blood levels, maximal ([4]; 6 hours after implanting the stent, stent with 200 μg drug): about 3 ng/ml; content in the arterial tissue ([4]; at 7 days): 97 ng/artery; content in the arterial tissue ([4]; at 28 days): 30 ng/artery; fraction of cells labeled with BrdU (proliferation) [5]: a lower number of labeled nuclei is observed
Stichodactyla helianthus toxin—fluorescein-6-carboxylic acid [ShK-F6CA]	4.8e-05 µM	–
[La+3] [La^3+]	20 µM	–
Noxiustoxin (TIINVKCTSPKQCSKPCKELYGSSAGAKCMNGKCKCYNN; UniProt P08815 1-39, looked up)	0.001 µM	–
Titystoxin-Kα	0.004 µM	–
O=C(NCC1CCCCN1)c1cc(OCC(F)(F)F)ccc1OCC(F)(F)F (stereo not drawn) [Flecainide]	60 µM	–
Pandinus imperator toxin 3	0.0005 µM	–
Odonthobthus doriae toxin 2 [Odonthobthus doriae toxin 2 (OdK2)]	0.007 µM	–
CC[N+](CC)(CC)CC [TEA, tetraethylammonium chloride]	10000 µM	–
[Hg+2] [Hg^2+]	10 µM	–
CCCCC/N=c1\ccn(Cc2ccccc2)c2ccccc12 [CP339818]	–	Kd [1]: 0.15 µM
C=C[C@H]1C[N@@]2CC[C@H]1C[C@H]2[C@H](O)c1ccnc2ccc(OC)cc12 [Quinine]	14 µM	–
Parabuthus toxin 3	0.492 µM	–
COc1ccc([C@@H]2Sc3ccccc3N(CCN(C)C)C(=O)[C@@H]2OC(C)=O)cc1 [Diltiazem]	27 µM	–
Kaliotoxin	0.00065 µM	–
Agiotoxin-2	0.0002 µM	–
Hongotoxin	8.6e-05 µM	–
CN1CCN(CCCN2c3ccccc3Sc3ccc(C(F)(F)F)cc32)CC1 [Trifluoperazine]	20 µM	–
O=c1cc(-c2ccc(O)c(O)c2)oc2cc(O)cc(O)c12 [Luteolin]	50 µM	–
C=C1C[C@@]2(O)[C@@H]3CC[C@@]4(C)[C@@H]5C=CC(=O)OC[C@]5(C(C)OC(C)=O)[C@@H](OC(C)=O)[C@@H](OC(C)=O)[C@@H]4[C@@]3(C)[C@H](OC(C)=O)[C@H](OC(C)=O)[C@@]2(C)C2(C(=O)OC)O[C@H]12 (stereo partly drawn) [Correolide]	–	Kd [1]: 0.09 µM

Compound	Kd ([1]; Kv1.3 channel)	further results
Heterometrus spinifer toxin 1	1.2e-05 µM	–
Buthus martensii Karsch toxin	0.00079 µM	–
Dendrotoxin	0.25 µM	–
COc1cc(CNC(=O)CCCC/C=C/C(C)C)ccc1O [Capsaicin]	26 µM	–
Parabuthus toxin 1	0.8 µM	–
CCC[C@@H](O)/C=C/C=C/C=C/C#CC#CCCCO [Cicutotoxin]	18 µM	–
[Zn+2] [Zn^2+]	200 µM	–
C=C(C)[C@]12C[C@@H](C)[C@@]34O[C@](Cc5ccccc5)(O[C@@H]1[C@@H]3C=C(COC(=O)Cc1ccc(O)c(OC)c1)C[C@]1(O)C(=O)C(C)=C[C@@H]41)O2 [Resiniferatoxin]	3 µM	–
Maurotoxin (VSCTGSKDCYAPCRKQTGCPNAKCINKSCKCYGC; UniProt P80719 1-34, looked up)	0.15 µM	–
CC(=O)[C@H]1CC[C@H]2[C@@H]3CCC4=CC(=O)CC[C@]4(C)[C@H]3CC[C@]12C [Progesterone]	30 µM	–
[Co+2] [Co^2+]	200 µM	–
COc1ccc(CCCN2CCC(COC(c3ccccc3)c3ccccc3)CC2)cc1 [UK78282]	0.2 µM	–
CC[C@H](C)[C@@H]1NC(=O)[C@@H](NC(=O)[C@H](CO)NC(=O)[C@@H](N)CCCNC(=N)N)CSSC[C@@H](C(=O)O)NC(=O)[C@H]([C@@H](C)O)NC(=O)CNC(=O)[C@@H]2CSSC[C@@H]3NC(=O)[C@H](CCC(N)=O)NC(=O)[C@H](Cc4ccccc4)NC(=O)[C@H](C)NC(=O)[C@H]([C@@H](C)O)NC(=O)[C@H](CSSC[C@H](NC(=O)[C@H](Cc4ccccc4)NC(=O)[C@H](CO)NC(=O)[C@H](CC(C)C)NC(=O)[C@H](CCCNC(=N)N)NC(=O)[C@H](Cc4ccc(O)cc4)NC(=O)[C@H](CCCCN)NC(=O)[C@H](CCSC)NC(=O)[C@H](CO)NC(=O)[C@H](Cc4cnc[nH]4)NC(=O)[C@H](CCCCN)NC3=O)C(=O)N[C@@H](CCCNC(=N)N)C(=O)N[C@@H](CCCCN)C(=O)N[C@@H]([C@@H](C)O)C(=O)N2)NC(=O)[C@H](CCCNC(=N)N)NC(=O)[C@H](CO)NC(=O)[C@H](CCCCN)NC(=O)[C@@H]2CCCN2C(=O)[C@H]([C@@H](C)CC)NC(=O)[C@H]([C@@H](C)O)NC(=O)[C@H](CC(=O)O)NC1=O [ShK]	–	level at 96 h ([4]; pig, in vivo, 200 ug per stent, at 4 days, below the limit of detection): < 0.2 ng/mL
Charybdotoxin	0.003 µM	–
COC(=O)C1=C(C)NC(C)=C(C(=O)OC)C1c1ccccc1[N+](=O)[O-] [Nifedipine]	5 µM	–
c1ccc(C2(N3CCCCC3)CCCCC2)cc1 [Phencyclidine]	5 µM	–
Stichodactyla helianthus toxin [Stichodactyla helianthus toxin (ShK)]	1.1e-05 µM	–
Pandinus imperator toxin 1	0.011 µM	–
κ-Hefutoxin	40 µM	–
CCOC(=O)C1=C(C)NC(C)=C(C(=O)OC)C1c1cccc([N+](=O)[O-])c1 (stereo not drawn) [Nitrendipine]	5 µM	–
Margatoxin	0.00011 µM	fraction of cells labeled with BrdU (proliferation) [5]: a lower number of labeled nuclei is observed; current blocked, of the Kv current ([6]; VSMCs in culture): 58.15±4.54; current blocked, of the Kv current ([6]; contractile VSMCs): 10.6±2.03
trans-N-propyl-carbamoyloxy-PAC	0.05 µM	–

Source: US8629110B2, “Kv1.3 channel blocking substances for the treatment of diseases associated with intimal hyperplasia” (priority 2008, dated 2014)
